Experimental findings from ChEMBL document CHEMBL5543174, “A Nonbactericidal Anionic Antimicrobial Peptide Provides Prophylactic and Therapeutic Efficacies against Bacterial Infections in Mice by Immunomodulatory-Antithrombotic Duality” (J Med Chem, 2024) are described below.

In data set [1] the test system is Peritoneal macrophage. The data set is described as follows: Cytotoxicity against mouse Peritoneal macrophage at <= 200 ug/ml incubated for 24 hrs by CCK-8 assay. It counts as toxicity, cell-based. The conditions noted are these: dose < 200 µg/ml.
The nature of data set [2]: Acute toxicity in C57BL/6 mouse assessed as change in creatinine level in serum at 10 mg/kg,ip administration measured after 24 hrs. The class given is organism-based. Particulars: in vivo.
Data set [3] in a line: Acute toxicity in C57BL/6 mouse assessed as change in ALT level in serum at 10 mg/kg,ip administration measured after 24 hrs. It counts as organism-based. Particulars: in vivo.
Data set [4] can be described thus: Acute toxicity in C57BL/6 mouse assessed as change in ALT level in serum at 30 mg/kg,ip administration measured after 24 hrs. It counts as organism-based. Particulars: in vivo.
Data set [5] can be described thus: Acute toxicity in C57BL/6 mouse assessed as change in creatinine level in serum at 30 mg/kg,ip administration measured after 24 hrs. The class given is organism-based. The conditions noted are these: in vivo.
The test system of data set [6] is Erythrocyte. The data set is described as follows: Hemolytic activity in mouse erythrocytes at 25 to 200 ug/ml incubated for 30 mins by absorbance based analysis. The class given is toxicity, cell-based. Particulars: 0.5 h, dose 25-200 µg/ml.
Data set [7] deals with Erythrocyte. Kind of data set: Hemolytic activity in rabbit erythrocytes at 25 to 200 ug/ml incubated for 30 mins by absorbance based analysis. The class given is toxicity, cell-based, Oryctolagus cuniculus. Particulars: 0.5 h, dose 25-200 µg/ml.
A further data set has as its system Neutrophil. Kind of data set: Cytotoxicity against mouse bone marrow derived neutrophil at <= 200 ug/ml incubated for 24 hrs by CCK-8 assay. It counts as toxicity, cell-based. Particulars: dose < 200 µg/ml.
Data set [8] deals with Escherichia coli. The data set is described as follows: Antimicrobial activity against Carbapenem-resistant Escherichia coli assessed as reduction in microbial colony forming unit at 2 times MIC incubated for 1 to 4 hrs by time-kill kinetics based analysis. It counts as functional, organism-based. The conditions noted are these: time 1-4 hrs.
Data set [9] relates to Staphylococcus aureus. The data set is described as follows: Antimicrobial activity against Staphylococcus aureus ATCC 25923 assessed as reduction in metabolic activity at 2 times MIC incubated for 1 to 4 hrs by CCK-8 assay. The class given is functional, organism-based. The conditions noted are these: time 1-4 hrs.
In data set [10] the test system is Candida albicans. Kind of data set: Antimicrobial activity against Candida albicans ATCC 2002 assessed as reduction in microbial colony forming unit at 2 times MIC incubated for 1 to 4 hrs by time-kill kinetics based analysis. The class given is functional, organism-based. The conditions noted are these: time 1-4 hrs.
Data set [11] has as its system Staphylococcus aureus. Kind of data set: Antimicrobial activity against Staphylococcus aureus ATCC 25923 assessed as reduction in microbial colony forming unit at 2 times MIC incubated for 1 to 4 hrs by time-kill kinetics based analysis. The conditions noted are these: time 1-4 hrs. The class given is functional, organism-based.
Data set [12] deals with Staphylococcus aureus. The data set is described as follows: Antimicrobial activity against Methicillin-resistant Staphylococcus aureus assessed as reduction in microbial colony forming unit at 2 times MIC incubated for 1 to 4 hrs by time-kill kinetics based analysis. It counts as functional, organism-based. The conditions noted are these: time 1-4 hrs.
The subject of data set [13] is Escherichia coli. Kind of data set: Antimicrobial activity against Escherichia coli ATCC 25922 assessed as reduction in metabolic activity at 2 times MIC incubated for 1 to 4 hrs by CCK-8 assay. The conditions noted are these: time 1-4 hrs. It counts as functional, organism-based.
Data set [14] deals with Candida albicans. Kind of data set: Antimicrobial activity against Candida albicans ATCC 2002 assessed as reduction in metabolic activity at 2 times MIC incubated for 1 to 4 hrs by CCK-8 assay. It counts as functional, organism-based. Particulars: time 1-4 hrs.
Data set [15] relates to Staphylococcus aureus. The data set is described as follows: Antimicrobial activity against Methicillin-resistant Staphylococcus aureus assessed as reduction in metabolic activity at 2 times MIC incubated for 1 to 4 hrs by CCK-8 assay. It counts as functional, organism-based. The conditions noted are these: time 1-4 hrs.
Data set [16] relates to Escherichia coli. Kind of data set: Antimicrobial activity against Escherichia coli ATCC 25922 assessed as reduction in microbial colony forming unit at 2 times MIC incubated for 1 to 4 hrs by time-kill kinetics based analysis. It counts as functional, organism-based. The conditions noted are these: time 1-4 hrs.
Data set [17] has as its system Escherichia coli. The data set is described as follows: Antimicrobial activity against Carbapenem-resistant Escherichia coli assessed as reduction in metabolic activity at 2 times MIC incubated for 1 to 4 hrs by CCK-8 assay. Particulars: time 1-4 hrs. It counts as functional, organism-based.
The subject of data set [18] is Peritoneal macrophage cell. The data set is described as follows: Induction of phagocytosis in mouse Peritoneal macrophage cultured with Methicillin-resistant Staphylococcus aureus assessed as number of surviving engulfed bacteria at 50 ug/ml incubated for 1.5 hrs followed by bacterial exposure for 1 hr by plate counting method. The class given is functional. The conditions noted are these: dose 50 µg/ml; time 2.5 hrs.

The subject of data set [19] is Platelet. The data set is described as follows: Anti-platelet aggregation activity in human Platelet rich plasma assessed as inhibition of collagen-induced aggregation at 100 ug/ml preincubated with compound for 5 mins followed by collagen addition by platelet aggregometry relative to control. It counts as functional. The arrangement: scale not given: the % may be the effect or the level left. The conditions noted are these: dose 100 µg/ml.

Data set [20] concerns Peritoneal macrophage. The data set is described as follows: Induction of chemotaxis in mouse Peritoneal macrophage assessed as upregulation of CXCL2 production at 100 ug/ml preincubated with PTX followed by compound addition by ELISA. The class given is functional. The conditions noted are these: dose 100 µg/ml.
The test system of data set [21] is Peritoneal macrophage. The data set is described as follows: Induction of chemotaxis in mouse Peritoneal macrophage assessed as upregulation of MCP-1 production at 100 ug/ml preincubated with PTX followed by compound addition by ELISA. It counts as functional. The conditions noted are these: dose 100 µg/ml.
Data set [22] deals with Peritoneal macrophage cell. The data set is described as follows: Induction of phagocytosis in mouse Peritoneal macrophage cultured with Carbapenem-resistant Escherichia coli assessed as number of surviving engulfed bacteria at 100 ug/ml incubated for 1.5 hrs followed by bacterial exposure for 1 hr by plate counting method. It counts as functional. Particulars: dose 100 µg/ml; time 2.5 hrs.

The subject of data set [23] is Peritoneal macrophage. The data set is described as follows: Induction of phagocytosis in mouse Peritoneal macrophage cultured with Carbapenem-resistant Escherichia coli assessed as number of surviving engulfed bacteria at 25 ug/ml incubated for 1.5 hrs followed by bacterial exposure for 1 hr by plate counting method. It counts as functional. Particulars: dose 25 µg/ml; time 2.5 hrs.

The next data set has as its system Mus musculus. Kind of data set: Antithrombotic activity in FeCl3-induced carotid arterial thrombosis C57BL/6 mouse model assessed as increase in blood flow by measuring time to occlusion at 10 mg/kg,SC administration observed for 30 mins by laser speckle perfusion imaging analysis. It counts as functional. The conditions noted are these: 0.5 h.
The subject of data set [24] is Platelet. The data set is described as follows: Anti-platelet aggregation activity in human Platelet rich plasma assessed as inhibition of PMA-induced aggregation at 100 ug/ml preincubated with compound for 5 mins followed by PMA addition by platelet aggregometry relative to control. It counts as functional. On the set-up: scale not given: the % may be the effect or the level left. Particulars: dose 100 µg/ml.

Data set [25] has as its system Peritoneal macrophage cell. Kind of data set: Induction of chemotaxis in mouse Peritoneal macrophage assessed as upregulation of CXCL1 production at 100 ug/ml preincubated with PTX followed by compound addition by ELISA. The class given is functional. Particulars: dose 100 µg/ml.
Data set [26] deals with Peritoneal macrophage cell. The data set is described as follows: Induction of phagocytosis in mouse Peritoneal macrophage cultured with Methicillin-resistant Staphylococcus aureus assessed as number of surviving engulfed bacteria at 25 ug/ml incubated for 1.5 hrs followed by bacterial exposure for 1 hr by plate counting method. The conditions noted are these: dose 25 µg/ml; time 2.5 hrs. It counts as functional.

Data set [27] deals with Peritoneal macrophage cell. The data set is described as follows: Induction of phagocytosis in mouse Peritoneal macrophage cultured with Methicillin-resistant Staphylococcus aureus assessed as number of surviving engulfed bacteria at 100 ug/ml incubated for 1.5 hrs followed by bacterial exposure for 1 hr by plate counting method. The conditions noted are these: dose 100 µg/ml; time 2.5 hrs. The class given is functional.

Data set [28] relates to Platelet. Kind of data set: Anti-platelet aggregation activity in human Platelet rich plasma assessed as inhibition of ADP-induced aggregation at 100 ug/ml preincubated with compound for 5 mins followed by ADP addition by platelet aggregometry relative to control. It counts as functional. On the set-up: scale not given: the % may be the effect or the level left. The conditions noted are these: dose 100 µg/ml.

In data set [29] the test system is Peritoneal macrophage cell. Kind of data set: Induction of phagocytosis in mouse Peritoneal macrophage cultured with Carbapenem-resistant Escherichia coli assessed as number of surviving engulfed bacteria at 50 ug/ml incubated for 1.5 hrs followed by bacterial exposure for 1 hr by plate counting method. The class given is functional. Particulars: dose 50 µg/ml; time 2.5 hrs.

Activity calls are given as the source filed them. The calls are words filed in the database; no cut-off is given here.

As for `CC[C@H](C)[C@H](NC(=O)[C@@H]1CSSC[C@H](NC(=O)[C@H](CCC(=O)O)NC(=O)[C@@H](NC(=O)[C@H](CCCCN)NC(=O)[C@H](Cc2c[nH]cn2)NC(=O)[C@@H](NC(=O)[C@H](CCCCN)NC(=O)[C@H](CCC(=O)O)NC(=O)[C@H](C)NC(=O)[C@H](CCC(=O)O)NC(=O)[C@H](CCC(=O)O)NC(=O)[C@H](CCC(=O)O)NC(=O)[C@H](C)N)[C@@H](C)O)[C@@H](C)O)C(=O)N[C@@H](CC(C)C)C(=O)N[C@@H](CCC(=O)O)C(=O)N1)C(=O)N[C@@H](Cc1ccccc1)C(=O)N[C@H](C(=O)N[C@@H](CC(C)C)C(=O)N[C@@H](CC(C)C)C(=O)N1CCC[C@H]1C(=O)N1CCC[C@H]1C(=O)N[C@@H](C)C(=O)O)[C@@H](C)O` [listing 1 of 2 here], the Activity result (with Peritoneal macrophage [1]; in data set [2]; in data set [3]; in data set [4]; in [5]; in the data set with Erythrocyte [6]) was “Non-Toxic” in each case. The Activity entry in the data set on Erythrocyte [7] and with Neutrophil was “Non-Toxic” in each case.
As to `CC[C@H](C)[C@H](NC(=O)[C@H](CCCCN)NC(=O)[C@H](CCC(=O)O)NC(=O)[C@H](CCCCN)NC(=O)[C@H](CO)NC(=O)[C@H](CCCCN)NC(=O)[C@H](CCCNC(=N)N)NC(=O)[C@H](Cc1ccccc1)NC(=O)[C@H](Cc1ccccc1)NC(=O)[C@H](CC(=O)O)NC(=O)CNC(=O)[C@H](CC(C)C)NC(=O)[C@@H](N)CC(C)C)C(=O)NCC(=O)N[C@@H](CCCCN)C(=O)N[C@@H](CCC(=O)O)C(=O)N[C@@H](Cc1ccccc1)C(=O)N[C@@H](CCCCN)C(=O)N[C@@H](CCCNC(=N)N)C(=O)N[C@H](C(=O)N[C@H](C(=O)N[C@@H](CCC(N)=O)C(=O)N[C@@H](CCCNC(=N)N)C(=O)N[C@H](C(=O)N[C@@H](CCCCN)C(=O)N[C@@H](CC(=O)O)C(=O)N[C@@H](Cc1ccccc1)C(=O)N[C@@H](CC(C)C)C(=O)N[C@@H](CCCNC(=N)N)C(=O)N[C@@H](CC(N)=O)C(=O)N[C@@H](CC(C)C)C(=O)N[C@H](C(=O)N1CCC[C@H]1C(=O)N[C@@H](CCCNC(=N)N)C(=O)N[C@H](C(=O)N[C@@H](CCC(=O)O)C(=O)N[C@@H](CO)C(=O)O)[C@@H](C)O)C(C)C)[C@@H](C)CC)C(C)C)[C@@H](C)CC`, the result in the data set with Escherichia coli [8], with Staphylococcus aureus [9], in the data set with Candida albicans [10], in the data set on Staphylococcus aureus [11], in the data set with Staphylococcus aureus [12] and in the data set on Escherichia coli [13] was Active. The result with Candida albicans [14], in the data set on Staphylococcus aureus [15], with Escherichia coli [16] and in the data set with Escherichia coli [17] was Active.
On to `C[C@@H](O)[C@H]1C(=O)N2C(C(=O)O)=C(S[C@@H]3CN[C@H](C(=O)N(C)C)C3)[C@H](C)[C@H]12`, for which the result in the data set with Escherichia coli [8], in the data set on Staphylococcus aureus [9], in the data set on Candida albicans [10], with Staphylococcus aureus [11], in the data set with Staphylococcus aureus [12] and in the data set with Escherichia coli [13] was Active. The outcome in the data set on Candida albicans [14], in the data set with Staphylococcus aureus [15], in the data set with Escherichia coli [16] and in the data set on Escherichia coli [17] was Active.
For the compound `CC[C@H](C)[C@H](NC(=O)[C@@H]1CSSC[C@H](NC(=O)[C@H](CCC(=O)O)NC(=O)[C@@H](NC(=O)[C@H](CCCCN)NC(=O)[C@H](Cc2c[nH]cn2)NC(=O)[C@@H](NC(=O)[C@H](CCCCN)NC(=O)[C@H](CCC(=O)O)NC(=O)[C@H](C)NC(=O)[C@H](CCC(=O)O)NC(=O)[C@H](CCC(=O)O)NC(=O)[C@H](CCC(=O)O)NC(=O)[C@H](C)N)[C@@H](C)O)[C@@H](C)O)C(=O)N[C@@H](CC(C)C)C(=O)N[C@@H](CCC(=O)O)C(=O)N1)C(=O)N[C@@H](Cc1ccccc1)C(=O)N[C@H](C(=O)N[C@@H](CC(C)C)C(=O)N[C@@H](CC(C)C)C(=O)N1CCC[C@H]1C(=O)N1CCC[C@H]1C(=O)N[C@@H](C)C(=O)O)[C@@H](C)O` [listing 2 of 2 here], the Activity in data set [18] is 532; in the data set on Platelet [19] it was 57.72%; with Peritoneal macrophage [20] it was 63.2%; in the data set with Peritoneal macrophage [21] it was 52.8%; in data set [22], 234; in the data set on Peritoneal macrophage [23] it was 279. The Activity in the data set with Platelet [24] was 78.01%; in data set [25], 56.8%; in data set [26] it was 793; in data set [27], 244; in the data set with Platelet [28] it was 54.2%; in [29] it was 245. Moreover, the Time in the data set with Mus musculus is given as 28.5 min.
